Tests used:
Assay type in all cases: in vivo, human
[1] = Metabolomic analysis of infant feces (UPLC-MS/MS)
Protocol: Fecal samples from infants of Example 1 were evaluated as described below to characterize the fecal metabolome and what effects colonization by this organism may have on the infant's metabolism as a whole.
Sample Preparation: Fecal samples were maintained at −80° C. until processed. Samples were prepared using the automated MicroLab STAR® system from Hamilton Company. Several recovery standards were added prior to the first step in the extraction process for QC purposes. To remove protein, dissociate small molecules bound to protein or trapped in the precipitated protein matrix, and to recover chemically diverse metabolites, proteins were precipitated with methanol under vigorous shaking for 2 min (Glen Mills GenoGrinder 2000) followed by centrifugation. The resulting extract was divided into five fractions: two for analysis by two separate reverse phase (RP)/UPLC-MS/MS methods with positive ion mode electrospray ionization (ESI), one for analysis by RP/UPLC-MS/MS with negative ion mode ESI, one for analysis by HILIC/UPLC-MS/MS with negative ion mode ESI, and one sample was reserved for backup. Samples were placed briefly on a TurboVap® (Zymark) to remove the organic solvent. The sample extracts were stored overnight under nitrogen before preparation for analysis.
Preparation of study-tracking replicates. A small aliquot of each sample was pooled to create a study tracking sample, which was then injected periodically throughout the platform run. Variability detected in the study tracking sample among consistently detected biochemicals can be used to calculate an estimate of overall process and platform variability.
Ultrahigh Performance Liquid Chromatography-Tandem Mass Spectroscopy (UPLC-MS/MS): All methods utilized a Waters ACQUITY ultra-performance liquid chromatography (UPLC) and a Thermo Scientific Q-Exactive high resolution/accurate mass spectrometer interfaced with a heated electrospray ionization (HESI-II) source and Orbitrap mass analyzer operated at 35,000 mass resolution. The sample extract was dried then reconstituted in solvents compatible to each of the four methods. Each reconstitution solvent contained a series of standards at fixed concentrations to ensure injection and chromatographic consistency. One aliquot was analyzed using acidic positive ion conditions, chromatographically optimized for more hydrophilic compounds. In this method, the extract was gradient eluted from a C18 column (Waters UPLC BEH C18-2.1×100 mm, 1.7 μm) using water and methanol, containing 0.05% perfluoropentanoic acid (PFPA) and 0.1% formic acid (FA). Another aliquot was also analyzed using acidic positive ion conditions, however it was chromatographically optimized for more hydrophobic compounds. In this method, the extract was gradient eluted from the same afore mentioned C18 column using methanol, acetonitrile, water, 0.05% PFPA and 0.01% FA and was operated at an overall higher organic content. Another aliquot was analyzed using basic negative ion optimized conditions using a separate dedicated C18 column. The basic extracts were gradient eluted from the column using methanol and water, however with 6.5 mM Ammonium Bicarbonate at pH 8. The fourth aliquot was analyzed via negative ionization following elution from a HILIC column (Waters UPLC BEH Amide 2.1×150 mm, 1.7 μm) using a gradient consisting of water and acetonitrile with 10 mM Ammonium Formate, pH 10.8. The MS analysis alternated between MS and data-dependent MS' scans using dynamic exclusion. The scan range varied slighted between methods but covered 70-1000 m/z.
Data Extraction and Compound Identification: Raw data was extracted, peak-identified and QC processed using Proprietary hardware and software. […]

fecal bacteria = assay: Fecal microscopy (Gram-stained light microscopy, SEM)
Protocol: Fecal Microscopy. All samples were fixed by adding equal amount of 5% glutaraldehyde in 0.2 M cacodylate buffer (final concentration 2.5% glutaraldehyde in 0.1 M cacodylate buffer) for 1-2 h before being processed for Gram-stained light microscopy and scanning electron microscopy (SEM). For light microscopy, conventional Gram-stained samples on slides were imaged under an EVOS Auto-FL system using a 60× lens and 2.7× optical zoom, under the same setting of the color camera. Five random fields of images were collected from each sample slide. For SEM, since the samples were previously frozen before fixation, the osmium post-fixation, and critical-point dry procedures were not performed. The fixed samples were dehydrated through an ethanol series and placed on membrane filters. The samples were mounted onto the SEM stubs, aired overnight, and then vacuum-oven dried at 50° C. for >2 h before sputter-coating with a thin layer of chromium using Denton Desk V sputter. Images were collected under various magnifications to capture bacterial morphology using a Hitachi […] field-emission SEM. Microscopy confirmed the high levels of Bifidobacterium in samples from the treatment group.

[2] = Immune development in C-section infants; conditions: baseline to three months
Source text: Approximately 25 mother-infant dyads are recruited to provide a cord blood sample and two infant blood samples, one on day 0-4 and another at 3 months old (between 84 and 104). Markers of immune function will be analysed and compared to the development of the gut microbiome.
The study design is described in FIG. 16. The change in levels of immune cells and markers from baseline (Day 0-Day 4) to three months (Day 84-Day 104) will be measured. The correlation between gut microbiota composition and abundance and levels of immune cells and markers may also be measured. The differences between B. infantis and placebo supplementation on levels of immune cells and markers in breast-fed infants.
The differences between B. infantis and placebo supplementation on vaccine response (antibody titers). Blood samples are collected at baseline and month-three postpartum for evaluation of peripheral blood mononuclear cell characterization (including regulatory T cells) and vaccine response.

[3] = day 28, fold-change active:control
[4] = intervention/control, outlier removed

Bifidobacterium longum subsp. infantis EVC001 [B. infantis EVC001]
creatinine Active/Control [1, 3]: 1.4
gamma-glutamyl-alpha-lysine Active/Control [1, 3]: 3.3
gamma-glutamyl-epsilon-lysine Active/Control [1, 3]: 2.4
gamma-glutamylalanine Active/Control [1, 3]: 5.9
gamma-glutamylcysteine Active/Control [1, 3]: 44.3
gamma-glutamylglutamate Active/Control [1, 3]: 3.1
gamma-glutamylglutamine Active/Control [1, 3]: 1.6
gamma-glutamylhistidine Active/Control [1, 3]: 10.5
gamma-glutamylisoleucine* Active/Control [1, 3]: 8.1
gamma-glutamylleucine Active/Control [1, 3]: 1.6
gamma-glutamylmethionine Active/Control [1, 3]: 19.3
gamma-glutamylphenylalanine Active/Control [1, 3]: 4.2
gamma-glutamylthreonine Active/Control [1, 3]: 7.15
gamma-glutamyltyrosine Active/Control [1, 3]: 2.8
gamma-glutamylvaline Active/Control [1, 3]: 3.3
Gamma-glutamyl Threonine Int/con ([1]; intervention/control): 5.35
N-acetyl Threonine Int/con ([1]; intervention/control): 3.07
Threonine Int/con ([1]; intervention/control): 3.21
Gamma-glutamyl Threonine Int/Con with outlier removed [1, 4]: 7.15
N-acetyl Threonine Int/Con with outlier removed [1, 4]: 3.67
Threonine Int/Con with outlier removed [1, 4]: 4.35
Fecal retinol ([1]; versus control): significantly reduced
Bifidobacterium in fecal samples by microscopy (fecal bacteria; samples from the treatment group): high levels
Gram staining of fecal smears (fecal bacteria; three fecal samples, Day 40): overwhelmingly contained Gram-positive bacteria
Bacterial morphology in fecal samples (fecal bacteria; three fecal samples, Day 40, multiple fields of view): uniform morphology of rod-shaped bacteria
Inflammation [2]: reduced
Th17 and IL-17 level [2]: decreased
Tregs [2]: increased

Source: patent US20210308196A1, “COMPOSITIONS AND METHODS TO PROMOTE HOST DEFENSE AND STIMULATE, EXPAND, AND/OR RESET T CELL REPERTOIRES” (EVOLVE BIOSYSTEMS, INC., priority 2018, published 2021)
